Data published in PubChem BioAssay (NCI).
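Abbreviation: GI50, concentration required for 50% inhibition of growth. TGI: total growth inhibition.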

Experiments:
Experiment in all cases: DTP human tumour cell line panel, 384-well format
[1] = tested on: OVCAR-3 ovarian
[2] = tested on: SK-MEL-5 melanoma
[3] = tested on: UACC-62 melanoma
[4] = tested on: HOP-62 NSCLC
[5] = tested on: CAKI-1 renal
[6] = tested on: KM12 colon
[7] = tested on: HCC-2998 colon
[8] = tested on: MDA-MB-231 breast
[9] = tested on: U251 glioblastoma
[10] = tested on: HCT-15 colon
[11] = tested on: OVCAR-4 ovarian
[12] = tested on: HL-60(TB) leukemia
[13] = tested on: PC-3 prostate
[14] = tested on: NCI-H522 lung
[15] = tested on: RXF 393 renal
[16] = tested on: SR leukemia
[17] = tested on: SW-620 colon
[18] = tested on: NCI-H460 NSCLC
[19] = tested on: CCRF-CEM leukemia
[20] = tested on: MDA-MB-435 melanoma
[21] = tested on: LOX IMVI melanoma
[22] = tested on: MOLT-4 leukemia
[23] = tested on: HOP-92 NSCLC
[24] = tested on: RPMI-8226 leukemia
[25] = tested on: DU-145 prostate
[26] = tested on: NCI-H322M lung
[27] = tested on: SNB-19 CNS
[28] = tested on: HCT-116 colon
[29] = tested on: NCI/ADR-RES ovarian
[30] = tested on: COLO 205 colon
[31] = tested on: HT29 colon
[32] = tested on: T-47D breast
[33] = tested on: OVCAR-8 ovarian
[34] = tested on: K-562 leukemia
[35] = tested on: SF-539 CNS
[36] = tested on: SN12C renal
[37] = tested on: UO-31 renal
[38] = tested on: NCI-H23 lung
[39] = tested on: M14 melanoma
[40] = tested on: SK-OV-3 ovarian
[41] = tested on: TK-10 renal
[42] = tested on: 786-0 renal
[43] = tested on: SK-MEL-2 melanoma
[44] = tested on: IGROV1 ovarian
[45] = tested on: UACC-257 melanoma
[46] = tested on: A549 NSCLC
[47] = tested on: MALME-3M melanoma
[48] = tested on: SK-MEL-28 melanoma
[49] = tested on: OVCAR-5 ovarian
[50] = tested on: MCF7 breast
[51] = tested on: ACHN renal
[52] = tested on: MDA-MB-468 breast
[53] = tested on: NCI-H226 lung
[54] = tested on: SF-295 CNS
[55] = tested on: BT-549 breast
[56] = tested on: A498 renal
[57] = tested on: SF-268 CNS

## CNC(=O)n1ccc2cc(Oc3ccnc(NC(=O)c4ccc(C5CCN(CCO)CC5)cc4)c3)c(OCCOC)cc21
[1]
  GI50: 2030 nM
  TGI: 3650 nM
[2]
  GI50: 1480 nM
  TGI: 2810 nM
[3]
  GI50: 1750 nM
  TGI: 3160 nM
[4]
  GI50: 2120 nM
  TGI: 4610 nM
[5]
  GI50: 2770 nM
  TGI: 5470 nM
[6]
  GI50: 1840 nM
  TGI: 3650 nM
[7]
  GI50: 2240 nM
  TGI: 4070 nM
[8]
  GI50: 1650 nM
  TGI: 3170 nM
[9]
  GI50: 1560 nM
  TGI: 3110 nM
[10]
  GI50: 1670 nM
  TGI: 3180 nM
[11]
  GI50: 1380 nM
  TGI: 2830 nM
[12]
  GI50: 2480 nM
  TGI: 3950 nM
[13]
  GI50: 2310 nM
  TGI: 4650 nM
[14]
  GI50: 2130 nM
  TGI: 3850 nM
[15]
  GI50: 304 nM
  TGI: 913 nM
[16]
  GI50: 830 nM
  TGI: 2050 nM
[17]
  GI50: 3010 nM
  TGI: 4960 nM
[18]
  GI50: 1650 nM
  TGI: 3100 nM
[19]
  GI50: 1740 nM
  TGI: 3130 nM
[20]
  GI50: 2250 nM
  TGI: 4050 nM
[21]
  GI50: 1720 nM
  TGI: 3110 nM
[22]
  GI50: 1400 nM
  TGI: 2700 nM
[23]
  GI50: 1650 nM
  TGI: 3550 nM
[24]
  GI50: 1520 nM
  TGI: 2860 nM
[25]
  GI50: 3600 nM
  TGI: 12400 nM
[26]
  GI50: 1830 nM
  TGI: 4690 nM
[27]
  GI50: 3610 nM
  TGI: 11800 nM
[28]
  GI50: 1320 nM
  TGI: 2650 nM
[29]
  GI50: 4830 nM
  TGI: 16600 nM
[30]
  GI50: 2270 nM
  TGI: 5230 nM
[31]
  GI50: 171 nM
  TGI: 699 nM
[32]
  GI50: 1080 nM
  TGI: 2300 nM
[33]
  GI50: 1820 nM
  TGI: 3300 nM
[34]
  GI50: 186 nM
  TGI: 451 nM
[35]
  GI50: 1020 nM
  TGI: 2190 nM
[36]
  GI50: 3500 nM
  TGI: 9770 nM
[37]
  GI50: 498 nM
  TGI: 1740 nM
[38]
  GI50: 3860 nM
  TGI: 13400 nM
[39]
  GI50: 1910 nM
  TGI: 3330 nM
[40]
  GI50: 1830 nM
  TGI: 3620 nM
[41]
  GI50: 1960 nM
  TGI: 4440 nM
[42]
  GI50: 1120 nM
  TGI: 2430 nM
[43]
  GI50: 1590 nM
  TGI: 2990 nM
[44]
  GI50: 3480 nM
  TGI: 14000 nM
[45]
  GI50: 1420 nM
  TGI: 2730 nM
[46]
  GI50: 3210 nM
  TGI: 11100 nM
[47]
  GI50: 1830 nM
  TGI: 3240 nM
[48]
  GI50: 1840 nM
  TGI: 3250 nM
[49]
  GI50: 1970 nM
  TGI: 7920 nM
[50]
  GI50: 1350 nM
  TGI: 3300 nM
[51]
  GI50: 1730 nM
  TGI: 3310 nM
[52]
  GI50: 1860 nM
  TGI: 3280 nM
[53]
  GI50: 66.3 nM
  TGI: 2180 nM
[54]
  GI50: 1820 nM
  TGI: 3760 nM
[55]
  GI50: 1370 nM
  TGI: 3060 nM
[56]
  GI50: 1260 nM
  TGI: 2960 nM
[57]
  GI50: 1770 nM
  TGI: 3650 nM
